Legend:
[1] = test system: HT29 (human colon adenocarcinoma cell line); assay: Cell test of photosensitizing activity (XTT cell viability after 652 nm laser irradiation) in HT29; format: cell-based; details: 2 or 10 μM photosensitizer, 24 h incubation, 50 J/cm^2, XTT viability 24 h after irradiation
Protocol: (§1) The photosensitizing activity was determined in the following cell lines: • HT29 (human colon adenocarcinoma cell line) • L929 (mouse fibroblast cell line) • A431 (human epidermoid carcinoma cell line) • A253 (submaxillary salivary gland, epidermoid cell line) • CAL-27 (human tongue squamous cell carcinoma cell line).
(§2) The cell lines were grown in DMEM (PAA Laboratories GmbH) supplemented with 10% heat-inactivated fetal calf serum (FCS, PAA Laboratories GmbH), 1% penicillin (10000 IU) and streptomycin (10000 μg/ml, PAA Laboratories GmbH). Cells were kept as a monolayer culture in a humidified incubator (5% CO2 in air at 37° C.).
(§3) A photosensitizer stock solution (2 mM) was performed in DMSO and was kept in the dark at 4° C. Further dilution was performed in DMEM medium without phenol red supplemented with 10% FCS to reach a final photosensitizer concentration of 2 or 10 μM, respectively.
(§4) 2·10^4 cells/ml were seeded in micro plates ([…]). Cells were incubated with fresh medium (DMEM without phenol red) containing 10% FCS with 2 or 10 μM of the photosensitizer for 24 h before light exposure. […]
(§5) The cell viability was assessed by the XTT assay. […]
(§6) The absorbance of the samples was measured with a spectrophotometer (Infinite 200, Tecan Group Ltd.) at a wavelength of 490 nm. In order to measure reference absorbance (to measure non-specific readings) a wavelength of 630-690 nm was used.

[2] = test system: CAL-27 (human tongue squamous cell carcinoma cell line); assay: Cell test of photosensitizing activity (XTT cell viability after 652 nm laser irradiation) in CAL-27; format: cell-based; details: 2 or 10 μM photosensitizer, 24 h incubation, 50 J/cm^2, XTT viability 24 h after irradiation
Protocol: as §1, §2, §3, §4, §5, §6

5,10,15-tris-(3-hydroxy-phenyl)-20-[4-(butyloxy)-tetra-fluorphenyl]-porphyrin [Example 7.13]
photodynamic activity (photo toxicity, "Laser") in the HT29 cell line [1]: lack activity | PDT activity against CAL-27 cells [2]: show PDT activity

Source: US12403127B2, “Specifically meso-substituted porphyrins and chlorins for photodynamic therapy” (biolitec Unternehmensbeteiligungs II AG, priority 2014, dated 2025)
